Measured values as given in EPA's ToxValDB 9.5.
Values joined by “and” are separate entries in the source; they are usually repeats but may differ in a detail not shown here. Identical values can stand only once. One block for each compound: values may come before it.

Key:
Mus musculus [1] = settings: oral
Rattus norvegicus [2] = settings: Hershberger, oral, gavage
Rattus norvegicus [3] = settings: oral
Rattus norvegicus [4] = test system: Rattus norvegicus
Mus musculus [5] = settings: oral; for LD50: acute
Rattus norvegicus [6] = settings: oral, diet, M/F; for NOAEL: no effects
Rattus norvegicus [7] = settings: oral; remark: listed apart in the source
[8] = duration: 5 days, Sprague-Dawley, active + Antiandrogenic + anti-androgenic + PPS delayed by 5 days / single dose tested (liver wt?)
[9] = reproduction developmental, diet, CD1, generation: F0
[10] = reproduction developmental, diet, CD1, generation: F1
[11] = reproduction developmental, diet, CD1, generation: F2
[12] = chronic, duration: 2 years, increased absolute and relative liver weight
[13] = subchronic, duration: 13 weeks, oral, diet, Fischer 344
[14] = subchronic, duration: 13 weeks, diet, M, B6C3F1
[15] = short-term, duration: 28 days, gavage, M, Sprague-Dawley, Clinical Observation: Spontaneous locomotion decrease, Respiratory rate decrease, Prone position Eyelid closure Staggering gait Incomplete …

SMILES: ClC(Cl)=C(c1ccc(Cl)cc1)c1ccc(Cl)cc1 [p,p'-DDE]
LOAEL (Mus musculus [1]; developmental, duration: 14 days, gavage, M, NMRI, developmental): 0.5 mg/kg-day
LOEL (Rattus norvegicus [2]; [8]): 100 mg/kg-day
NOEL (Rattus norvegicus [2]; [8]): 10 mg/kg-day
LOEL (Rattus norvegicus [2]; duration: 7 days, Fischer 344, active + Antiandrogenic + anti-androgenic + PPS delayed by 5 days / single dose tested (liver wt?)): 100 mg/kg-day and 200 mg/kg-day
LOEL (Rattus norvegicus [2]; duration: 7 days, Long-Evans, active + Antiandrogenic + anti-androgenic + PPS delayed by 5 days / single dose tested (liver wt?)): 100 mg/kg-day
LOEL (Rattus norvegicus [2]; duration: 7 days, Sprague-Dawley, active + Antiandrogenic + anti-androgenic + PPS delayed by 5 days / single dose tested (liver wt?)): 100 mg/kg-day and 200 mg/kg-day
LOEL (Rattus norvegicus [2]; duration: 10 days, Sprague-Dawley, active + Negative + Antiandrogenic + anti-androgenic + PPS delayed by 5 days / single dose tested (liver wt?)): 100 mg/kg-day
NOEL (Rattus norvegicus [2]; duration: 10 days, Wistar, active + Antiandrogenic + anti-androgenic + PPS delayed by 5 days / single dose tested (liver wt?)): 16 mg/kg-day and 30 mg/kg-day
NOEL (Rattus norvegicus [2]; duration: 10 days, wistar, active + Antiandrogenic + anti-androgenic + PPS delayed by 5 days / single dose tested (liver wt?)): 10 mg/kg-day and 16 mg/kg-day and 30 mg/kg-day

SMILES: CCCCCCCCOC(=O)c1ccccc1C(=O)OCCCCCCCC [Di-n-octyl phthalate]
LOAEL (Rattus norvegicus [3]; short-term, duration: 14 days, gavage, M, Sprague-Dawley, hepatic): 1000 mg/kg-day
NOAEL (Rattus norvegicus [3]; subchronic, duration: 13 weeks, diet, M/F, Sprague-Dawley, hepatic): 40.8 mg/kg-day
LD50 (Rattus norvegicus [4]; acute, oral): 53700 mg/kg
NOAEL (Rattus norvegicus [4]; reproduction developmental, duration: 13 weeks, oral, diet, Sprague-Dawley): 38.8 mg/kg-day
LD50 (Mus musculus [5]): 13000 mg/kg
NOAEL (Mus musculus [5]; reproduction developmental, duration: 8 days, gavage, F, CD1): 9780 mg/kg-day
NOAEL (% diet) (Mus musculus [5]; [9]): 5
NOAEL (% diet) (Mus musculus [5]; [10]): 5
NOAEL (% diet) (Mus musculus [5]; [11]): 5

SMILES: COc1nc(NC(C)C)nc(NC(C)C)n1 [Prometon]
NOAEL (Rattus norvegicus [6]; subchronic): 15 mg/kg-day

LEL (Rattus norvegicus [6]; [12]): 10 mg/kg-day
SMILES: CC1=C(C)S(=O)(=O)CCS1(=O)=O [Dimethipin]
NOEL (Rattus norvegicus [6]; [12]): 2 mg/kg-day

SMILES: COCCOCCOC [Diethylene glycol dimethyl ether]
LC50 (Rattus norvegicus [4]; acute, inhalation, nose only, Wistar): > 11000 mg/m3
NOAEC (Rattus norvegicus [4]; repeat dose other, inhalation, M): 165 mg/m3
NOAEL (Rattus norvegicus [4]; short-term, duration: 2 weeks, inhalation, nose only, F): 2030 mg/m3
LOAEL (Rattus norvegicus [4]; short-term, duration: 2 weeks, inhalation, nose only, M): 604 mg/m3
NOAEL (Mus musculus [5]; developmental, duration: 9 days, gavage, CD1): 62.8 mg/kg-day
NOAEL (Mus musculus [5]; reproduction developmental, duration: 9 days, gavage, F, CD1): 500 mg/kg-day
NOEL (Rattus norvegicus [7]; subchronic, gavage, M, Sprague-Dawley, Hematology: Hgb decrease, Hct decrease, MCV decrease + Necropsy: Spleen: Enlargement + Histopathology: Liver/Centrilobular- Hypertrophy of …): 2.5 mg/kg-day

SMILES: CN(C)C(=O)Nc1cccc(C(F)(F)F)c1 [Fluometuron]
NOAEL (Rattus norvegicus [6]; chronic, duration: 103 weeks): 12.5 mg/kg-day

SMILES: Cc1ccc2[nH]c3cc4c(=O)c5cc(C)ccc5[nH]c4cc3c(=O)c2c1 [C.I. Pigment Red 122]
LD50 (Rattus norvegicus [4]; acute, oral, gavage): ≥ 5000 mg/kg
LD50 (Mus musculus [5]; gavage): ≥ 5000 mg/kg
NOEL (Rattus norvegicus [7]; subchronic, gavage, Sprague-Dawley): 1000 mg/kg-day

SMILES: CNNC [1,2-Dimethylhydrazine]
LOAEL (Mus musculus [1]; chronic, duration: 5 months, diet, M, hepatic): 0.75 mg/kg-day

SMILES: CCOP(=O)(OCC)OC(=CCl)c1ccc(Cl)cc1Cl [Chlorfenvinphos]
LOAEL (Rattus norvegicus [3]; chronic, duration: 104 weeks, diet, M/F, Wistar, neurological): 0.7 mg/kg-day
LOAEL (Rattus norvegicus [3]; short-term, duration: 10 days, diet, F, Wistar, neurological): 2.4 mg/kg-day
LOAEL (Mus musculus [1]; subchronic, duration: 3 months, M/F, C57BL/6, immunological): 1.5 mg/kg-day

SMILES: OCC(CO)(CBr)CBr [Pentaerythritol dibromide]
LD50 (Rattus norvegicus [4]; acute, oral, gavage, Crl:CD1): 1880 mg/kg
LD50 (Rattus norvegicus [4]; acute, oral, gavage, Sprague-Dawley): > 2000 mg/kg
LOAEL (Rattus norvegicus [4]; subchronic, duration: 3 months, oral, diet, Fischer 344): 240 mg/kg-day
LOAEL (Rattus norvegicus [4]; [13]): 240 mg/kg-day
NOAEL (Rattus norvegicus [4]; [13]): 120 mg/kg-day
LOAEL (Mus musculus [5]; chronic, duration: 104 weeks, diet, B6C3F1): 57.7 mg/kg-day
NOAEL (% diet) (Mus musculus [5]; [9]): 0.1
NOAEL (% diet) (Mus musculus [5]; [10]): 0.1
NOAEL (% diet) (Mus musculus [5]; [11]): 0.1
LOAEL (Mus musculus [5]; subchronic, duration: 13 weeks, diet, F, B6C3F1): 123 mg/kg-day
LOAEL (Mus musculus [5]; [14]): 246 mg/kg-day
NOAEL (Mus musculus [5]; [14]): 123 mg/kg-day
NOAEL (Rattus norvegicus [7]; [15]): 200 mg/kg-day
NOEL (Rattus norvegicus [7]; [15]): < 200 mg/kg-day
NOEL (Rattus norvegicus [7]; subchronic, duration: 13 weeks, diet, F, Fischer 344, Body Weight Changes: decrease + Urinalysis: Total protein increase, Urine volume increase, Specific gravity decrease + Blood Chemistry: TP …): 100 mg/kg-day
NOEL (Rattus norvegicus [7]; subchronic, duration: 13 weeks, diet, M/F, Fischer 344, Body Weight Changes: decrease + Urinalysis: Total protein increase, Urine volume increase, Specific gravity decrease + Blood Chemistry: TP …): < 120 mg/kg-day
